Source: patent US20210228490A1, “STABLE PHARMACEUTICAL FORMULATION” (ORYZON GENOMICS, S.A., priority 2018, published 2021)
Entries after “also recorded” stand apart in the source; their conditions may differ.

Assay: Chemical stability of the API alone and in presence of excipients
Type: physicochemical
Description: Excipient selection/composition development was conducted in order to stabilize (trans)-N1-((1R,2S)-2-phenylcyclopropyl)cyclohexane-1,4-diamine in the final drug product to prevent its chemical degradation. (trans)-N1-((1R,2S)-2-phenylcyclopropyl)cyclohexane-1,4-diamine is very unstable in presence of excipients which are used to form a tablet composition. This is reflected by a decrease of the (trans)-N1-((1R,2S)-2-phenylcyclopropyl)cyclohexane-1,4-diamine content (assay) over time upon storage. The effect is more pronounced at elevated storage temperature.

N[C@H]1CC[C@H](N[C@@H]2C[C@H]2c2ccccc2)CC1 [(trans)-N1-((1R,2S)-2-phenylcyclopropyl)cyclohexane-1,4-diamine]
chemical stability as an API (API alone): chemically very stable | stability in presence of excipients (in presence of excipients which are used to form a tablet composition, more pronounced at elevated storage temperature): very unstable; also recorded: decompose in presence of many excipients
